Reference: ChEMBL document CHEMBL1201862, “PubChem BioAssay data set” (2004)
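A five-concentration, 48-hour dose response in 96-well plates underlies each endpoint, interpolated linearly between surrounding concentrations. GI50 is the concentration that inhibits growth by half.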 Calls of active or inactive are those of the source. Cut-off read from the data, not from the text of the source: active = GI50 up to about 1.1 µM and inactive = higher.

Tests used:
Assay in all cases: NCI tumour cell line growth inhibition, 48 h
OVCAR-3 = system: OVCAR-3
M19-MEL = system: M19-MEL
KM12 = system: KM12
OVCAR-4 = system: OVCAR-4
HCT-116 = system: HCT-116
UACC-257 = system: UACC-257
RXF 393 = system: RXF 393
COLO 205 = system: COLO 205
SW-620 = system: SW-620
SF-268 = system: SF-268
OVCAR-8 = system: OVCAR-8
MOLT-4 = system: MOLT-4
IGROV-1 = system: IGROV-1
EKVX = system: EKVX
Hs-578T = system: Hs-578T
MDA-MB-231 = system: MDA-MB-231
MDA-MB-435 = system: MDA-MB-435
PC-3 = system: PC-3
T47D = system: T47D
MCF7 = system: MCF7

SMILES | GI50 (OVCAR-3) | GI50 (M19-MEL) | GI50 (KM12) | GI50 (OVCAR-4) | GI50 (HCT-116) | GI50 (UACC-257) | GI50 (RXF 393) | GI50 (COLO 205) | GI50 (SW-620) | GI50 (SF-268) | GI50 (OVCAR-8) | GI50 (MOLT-4) | GI50 (IGROV-1) | GI50 (EKVX) | GI50 (Hs-578T) | GI50 (MDA-MB-231) | GI50 (MDA-MB-435) | GI50 (PC-3) | GI50 (T47D) | GI50 (MCF7)
CC(=O)N(C)OC(=O)CC(=O)c1ccccc1 | > 100 µM (inactive) | > 100 µM (inactive) | > 100 µM (inactive) | > 100 µM (inactive) | > 100 µM (inactive) | > 100 µM (inactive) | > 100 µM (inactive) | > 100 µM (inactive) | > 100 µM (inactive) | > 100 µM (inactive) | > 100 µM (inactive) | > 100 µM (inactive) | > 100 µM (inactive) |  |  |  |  |  |  | 
Cc1nc(=O)[nH]c2[nH][nH]c(=O)c12 | > 100 µM (inactive) | > 100 µM (inactive) | > 100 µM (inactive) | > 100 µM (inactive) | > 100 µM (inactive) |  | > 100 µM (inactive) | > 100 µM (inactive) | > 100 µM (inactive) | > 100 µM (inactive) | > 100 µM (inactive) | > 100 µM (inactive) | > 100 µM (inactive) | > 100 µM (inactive) |  |  |  |  |  | 
N#CC1(Cc2ccccc2Cl)c2ccccc2C=CN1C(=O)c1ccccc1 (configuration not stated) | > 100 µM (inactive) | > 100 µM (inactive) | > 100 µM (inactive) |  | > 100 µM (inactive) | 78.7 µM (inactive) | 23.2 µM (inactive) | > 100 µM (inactive) | > 100 µM (inactive) | > 100 µM (inactive) | > 100 µM (inactive) | 28.4 µM (inactive) | > 100 µM (inactive) | > 100 µM (inactive) |  |  |  |  |  | 
COc1cc2c(cc1OC)-c1c3cc(O)ccc3nn[n+]1CC2 | > 100 µM (inactive) | > 100 µM (inactive) | > 100 µM (inactive) | > 100 µM (inactive) | > 100 µM (inactive) |  | > 100 µM (inactive) | > 100 µM (inactive) | > 100 µM (inactive) | > 100 µM (inactive) | > 100 µM (inactive) | > 100 µM (inactive) | > 100 µM (inactive) | > 100 µM (inactive) |  |  |  |  |  | 
[N-]=[N+]=NC1(c2ccccc2)C(=O)C(Cl)=C(c2ccccc2)N(c2ccccc2)C1=O (configuration not stated) | 65.3 µM (inactive) | > 100 µM (inactive) | > 100 µM (inactive) | > 100 µM (inactive) | > 100 µM (inactive) | > 100 µM (inactive) |  | > 100 µM (inactive) | > 100 µM (inactive) | > 100 µM (inactive) | > 100 µM (inactive) | 58.5 µM (inactive) | > 100 µM (inactive) | > 100 µM (inactive) |  |  |  |  |  | 
N#Cc1ccccc1Sc1ccccc1N |  | > 100 µM (inactive) | 93.3 µM (inactive) | 64.4 µM (inactive) |  | > 100 µM (inactive) | 80.2 µM (inactive) | > 100 µM (inactive) | > 100 µM (inactive) | > 100 µM (inactive) | > 100 µM (inactive) | 43.8 µM (inactive) | 31.7 µM (inactive) | 77.1 µM (inactive) |  |  |  |  |  | 
COc1ccc2c(-c3ccc(OCCN(C)C)cc3)c(Oc3ccccc3)c(=O)oc2c1 | 7.64 µM (inactive) |  | 4.78 µM (inactive) | 16.9 µM (inactive) | 2.58 µM (inactive) | 2.09 µM (inactive) | 4.76 µM (inactive) | 3.01 µM (inactive) | 4.2 µM (inactive) | 6.18 µM (inactive) | 10.5 µM (inactive) | 2.71 µM (inactive) | 5.42 µM (inactive) | 11.1 µM (inactive) | 6.18 µM (inactive) | 3.15 µM (inactive) | 2.48 µM (inactive) | 6.12 µM (inactive) | 7.85 µM (inactive) | 3.57 µM (inactive)
C=CCN1C(=O)C[C@H](Cc2ccccc2)NC(=O)C[C@H](Cc2ccccc2)N(CC=C)C(=O)C[C@H](Cc2ccccc2)NC(=O)C[C@@H]1Cc1ccccc1 | 87.7 µM (inactive) |  | 26 µM (inactive) | 4.6 µM (inactive) | 14.8 µM (inactive) | 6.97 µM (inactive) | 7.14 µM (inactive) | 2.3 µM (inactive) | 62.7 µM (inactive) | 6.12 µM (inactive) | 39.4 µM (inactive) | 2.69 µM (inactive) | 20 µM (inactive) | 0.942 µM (active) | > 100 µM (inactive) | 8.79 µM (inactive) | 5.93 µM (inactive) | 3.1 µM (inactive) | 6.3 µM (inactive) | 4.04 µM (inactive)
CC(C)OP(=O)(OC(C)C)/C(=N/Nc1ccc([N+](=O)[O-])cc1)NNC(=O)c1ccccc1 | 34.3 µM (inactive) | 20.9 µM (inactive) | 38.3 µM (inactive) | 31.4 µM (inactive) | 34.2 µM (inactive) | 37.3 µM (inactive) |  | 36.1 µM (inactive) | 32.8 µM (inactive) | 36.7 µM (inactive) | 34.7 µM (inactive) | 17.2 µM (inactive) |  | > 100 µM (inactive) |  |  |  |  |  | 
